Measurements from article PMC11460631, “Inhibition of transient receptor potential vanilloid 3 channels by antimalarial hydroxychloroquine alleviates TRPV3-dependent dermatitis” (The Journal of Biological Chemistry, 2024).

Target: T1, TRPV3 mutant W692C (Homo sapiens, UniProt Q8NET8, W692C)
T1 construct: YFP or GFP; expressed in transfected cells; host or cells: HEK293T
T1 sequence (Q8NET8 1-790 W692C): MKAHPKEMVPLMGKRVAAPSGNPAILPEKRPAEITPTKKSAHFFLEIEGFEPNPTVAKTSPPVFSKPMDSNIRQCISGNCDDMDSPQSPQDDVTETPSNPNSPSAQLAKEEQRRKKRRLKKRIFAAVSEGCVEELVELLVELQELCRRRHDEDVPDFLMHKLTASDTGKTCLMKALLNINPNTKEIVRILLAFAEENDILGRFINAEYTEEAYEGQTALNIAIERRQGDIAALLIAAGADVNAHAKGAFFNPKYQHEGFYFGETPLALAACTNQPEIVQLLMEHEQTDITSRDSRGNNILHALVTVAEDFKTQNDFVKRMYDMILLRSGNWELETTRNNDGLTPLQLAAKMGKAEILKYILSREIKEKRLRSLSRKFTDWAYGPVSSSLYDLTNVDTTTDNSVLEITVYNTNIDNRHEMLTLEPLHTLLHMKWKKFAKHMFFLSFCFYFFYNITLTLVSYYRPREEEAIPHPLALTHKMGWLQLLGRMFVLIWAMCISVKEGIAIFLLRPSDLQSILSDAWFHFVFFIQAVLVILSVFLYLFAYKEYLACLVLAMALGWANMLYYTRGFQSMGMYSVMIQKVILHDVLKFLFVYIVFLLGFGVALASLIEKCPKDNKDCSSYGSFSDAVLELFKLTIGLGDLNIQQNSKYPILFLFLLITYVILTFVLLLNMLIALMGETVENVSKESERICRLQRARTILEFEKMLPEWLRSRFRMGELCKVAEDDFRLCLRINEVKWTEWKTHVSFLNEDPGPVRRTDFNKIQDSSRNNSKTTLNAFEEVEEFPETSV
Assay: Whole-cell recording of gain-of-function TRPV3 mutant W692C
Assay type: cell-based
Conditions: concentration gradients of HCQ, ± 80 mV
Procedure: To test the effect of HCQ on carvacrol-induced skin inflammation, we evaluated the inhibitory effect of HCQ on TRPV3 activated by carvacrol in vitro.
Figure 5 HCQ can attenuate mice back skin lesions induced by TRPV3 agonist carvacrol.A, representative whole-cell recording of TRPV3 in response to 1 mM carvacrol (Car), the mixture of 1 mM Car, and concentration gradients of HCQ with the holding potential of ± 80 mV. B, concentration–response curve of Car and HCQ on TRPV3 channels fitted by Hill equation. Data were shown as mean ± SEM (n = 6 cells). C, representative whole-cell recording of W692C mutants in response to concentration gradients of HCQ with the holding potential of ± 80 mV. D, concentration–response curve of HCQ on W692C mutants fitted by Hill equation. Data were shown as mean ± SEM (n = 4 cells). E, paradigm of generation of AD-like mice model induced by Car. […] A 200 μl volume of drug was applied to each mouse. Green lines indicate the thickness of the epidermis. Upper panel, the scale bar represents 2 cm; bottom panel, scale bar represents 100 μm. G–I, quantification of thickness (G), erythema (H), dryness, and scaling (I), (n = 6 mice, mean ± SEM), thickness: F (3, 20) = 20.68, p < 0.0001; erythema: F (3, 20) = 55.10, p < 0.0001; dryness and scaling: F (3, 20) = 39.61, p < 0.0001 by one-way ANOVA followed using Tukey's post hoc test. […]

effect on activity of gain-of-function TRPV3 mutant W692C: inhibited
Structure (SMILES): CCN(CCO)CCCC(C)Nc1ccnc2cc(Cl)ccc12 (stereo not shown) [HCQ, hydroxychloroquine]
